Assay results taken from US20020054880A1, “Anti-inflammatory, tolerogenic and immunoinhibiting properties of carbohydrate binding-peptides” (priority 1992, published 2002).
Entries after “also recorded” stand apart in the source; their conditions may differ.

How the values were obtained:
[1] = molecular target: T1, PT-biotin binding to fetuin (Bos taurus, UniProt P12763); experiment: PT-biotin binding to fetuin, binding inhibition assay; set-up: species or system Bordetella pertussis; conditions: for Percent Changes in Binding Activity PT/fetuin: peptide mg/mL: S2PL 1.2, ACS2P1 1.0, S2(14-2.3) 1.0, S2P2 1.1, S2P3 0.51, S2P4 0.98, S2P6 0.85, S3P1 3.2, S3P2 3.1, S3P3 4.5, S3P4 3.3, S3P5 0.48, S3P9a 1.7, SPYGRC 4.4, S2(WGA) 1.0, WGA (62-73) 1.0, + enhancement, − inhibition
T1 construct: purchased Sigma Chemical Company (fetuin); Connaught Center for Biotechnology Research (PT)
T1 sequence (P12763 19-359): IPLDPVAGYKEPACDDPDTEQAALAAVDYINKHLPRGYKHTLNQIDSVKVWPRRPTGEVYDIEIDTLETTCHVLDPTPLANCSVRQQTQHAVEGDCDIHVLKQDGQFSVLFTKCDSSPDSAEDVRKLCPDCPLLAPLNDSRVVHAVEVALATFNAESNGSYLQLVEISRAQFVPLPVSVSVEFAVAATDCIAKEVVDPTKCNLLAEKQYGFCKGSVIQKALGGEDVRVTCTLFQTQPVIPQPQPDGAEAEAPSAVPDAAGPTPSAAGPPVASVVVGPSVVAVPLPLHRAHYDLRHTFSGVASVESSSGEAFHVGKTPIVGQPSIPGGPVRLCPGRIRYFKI
Method: (§1) Peptides ranging in concentration from 0.5 to 4.5 mg/ml in PBS (40 μl) were added to each well and PT-biotin (10 μl containing 10 ng in PBS) was then added to the microtiter wells. […] Horseradish peroxidase-conjugated avidin (100 μl, 1/3000 dilution in PBST to a concentration of 0.3 μg/ml) was then added to the wells, and the plates were incubated at ambient temperature for 1 hour. […] Color development was recorded at 405 nm using a Titertek Multiskan MC plate reader. […] Binding assays for each peptide were done in duplicate. Binding inhibition experiments utilizing SNA-, WGA-, and MAL-biotin were performed as described above using 10 ng of each biotinylated lectin in PBS.
(§2) Binding assays for each inhibitor concentration were done at least in duplicate, and the average value varied less than 15%.

[2] = molecular target: T2, MAL-biotin binding to fetuin (Bos taurus, UniProt P12763); experiment: MAL-biotin binding to fetuin, binding inhibition assay; set-up: species or system Maackia amurensis; conditions: for Percent Changes in Binding Activity MAL/fetuin: peptide mg/mL: S2PL 1.2, ACS2P1 1.0, S2(14-2.3) 1.0, S2P2 1.1, S2P3 0.51, S2P4 0.98, S2P6 0.85, S3P1 3.2, S3P2 3.1, S3P3 4.5, S3P4 3.3, S3P5 0.48, S3P9a 1.7, SPYGRC 4.4, S2(WGA) 1.0, WGA (62-73) 1.0, + enhancement, − inhibition
T2 construct: purchased Sigma Chemical Company (fetuin); Boehringer Mannheim (MAL-biotin)
T2 sequence (P12763 19-359): T1 sequence (P12763 19-359)
Method: as §1, §2

[3] = molecular target: T3, SNA-biotin binding to fetuin (Bos taurus, UniProt P12763); experiment: biochemical; conditions: peptide mg/mL: S2PL 1.2, ACS2P1 1.0, S2(14-2.3) 1.0, S2P2 1.1, S2P3 0.51, S2P4 0.98, S2P6 0.85, S3P1 3.2, S3P2 3.1, S3P3 4.5, S3P4 3.3, S3P5 0.48, S3P9a 1.7, SPYGRC 4.4, S2(WGA) 1.0, WGA (62-73) 1.0; + enhancement, − inhibition
T3 sequence (P12763 19-359): T1 sequence (P12763 19-359)
Method: (§3) The solution was removed by aspiration and replaced with 100 μl of 1% BSA in PBS containing 0.05% Tween 20 (PBST). After incubation for 2-4 hours at room temperature, the microtiter wells were washed four times with 300 μl of PBST. Peptides ranging in concentration from 0.5 to 4.5 mg/ml in PBS (40 μl) were added to each well and PT-biotin (10 μl containing 10 ng in PBS) was then added to the microtiter wells. After incubating for 1 hour, the binding reaction was stopped by aspirating the solutions and the plate was washed with PBST (300 μl). Horseradish peroxidase-conjugated avidin (100 μl, 1/3000 dilution in PBST to a concentration of 0.3 μg/ml) was then added to the wells, and the plates were incubated at ambient temperature for 1 hour. After washing the wells as described above, the substrate solution [1 mM ABTS in 5 mM citrate buffer, pH 4.2, containing 0.1% hydrogen peroxide, v/v) was added and the plates were incubated for 30 minutes. Color development was recorded at 405 nm using a Titertek Multiskan MC plate reader. Maximum binding was determined in the absence of peptide, and background binding was measured in wells coated with BSA only. Binding assays for each peptide were done in duplicate. Binding inhibition experiments utilizing SNA-, WGA-, and MAL-biotin were performed as described above using 10 ng of each biotinylated lectin in PBS.

[4] = molecular target: T4, WGA-biotin binding to fetuin (Bos taurus, UniProt P12763); experiment: biochemical; conditions: for Percent Changes in Binding Activity WGA/fetuin: peptide mg/mL: S2PL 1.2, ACS2P1 1.0, S2(14-2.3) 1.0, S2P2 1.1, S2P3 0.51, S2P4 0.98, S2P6 0.85, S3P1 3.2, S3P2 3.1, S3P3 4.5, S3P4 3.3, S3P5 0.48, SPYGRC 4.4, S2(WGA) 1.0, WGA (62-73) 1.0, + enhancement, − inhibition
T4 sequence (P12763 19-359): T1 sequence (P12763 19-359)
Method: as §3

[5] = molecular target: T5, PT-biotin binding to asialofetuin (Bos taurus, UniProt P12763); experiment: PT-biotin binding to asialofetuin, binding inhibition assay; set-up: species or system Bordetella pertussis; conditions: for Percent Changes in Binding Activity PT/asialo-fetuin: peptide mg/mL: S2PL 1.2, ACS2P1 1.0, S2P2 1.1, S2P3 0.51, S2P4 0.98, S2P6 0.85, S3P1 3.2, S3P2 3.1, S3P3 4.5, S3P4 3.3, S3P5 0.48, SPYGRC 4.4, + enhancement, − inhibition
T5 construct: made in house
T5 sequence (P12763 19-359): T1 sequence (P12763 19-359)
Method: as §1, §2

[6] = molecular target: T6, ACS2P1-biotin binding to fetuin (Bos taurus, UniProt P12763); experiment: biochemical; conditions: for Percent Change in Binding Activity Fetuin: peptide μM: ACS2P1 4.1, S2P2 42.5, SPYGRC 5520, S2P3 22.4, S2P4 6.0, S2P6 319, S3P1 1142, S3P2 934, S3P3 16.1, S3P4 6.4, S3P5 22.5, ACS2P1-biotin 0.1 μg, − inhibition, + enhancement
T6 construct: purchased Sigma Chemical Company
T6 sequence (P12763 19-359): T1 sequence (P12763 19-359)

[7] = molecular target: T7, ACS2P1-biotin binding to asialofetuin (Bos taurus, UniProt P12763); experiment: Screening of S2 and S3 peptides for inhibition of ACS2P1-biotin binding to asialofetuin; conditions: for Percent Change in Binding Activity Asialofetuin: peptide μM: ACS2P1 4.1, S2P2 42.5, SPYGRC 5520, S2P3 22.4, S2P4 6.0, S2P6 319, S3P1 1142, S3P2 934, S3P3 16.1, S3P4 6.4, S3P5 22.5, ACS2P1-biotin 0.1 μg, − inhibition, + enhancement
T7 construct: made in house
T7 sequence (P12763 19-359): T1 sequence (P12763 19-359)

[8] = system: pertussis toxin binding to Chinese Hamster ovary (CHO) cell; experiment: CHO cell neutralization of pertussis toxin (cell clumping); format: cell-based; conditions: PT 2.4 ng/ml, peptide and PT 1 hour, triplicate
Method: Confluent monolayers of CHO cells were lifted from plastic tissue culture flasks with 0.25% trypsin and suspended at a concentration of 5×10^4 cells/ml in Ham's F12 media containing 10% fetal bovine serum (FBS). 100 μl of the cell suspension was added to 96 well tissue culture plates and were allowed to establish contact with the plastic for 24 to 48 hours. The expended media was then removed and filtered-sterilized peptide 5-fold dilutions ranging in concentration from 300 to 30 femptogram per ml (80 μl) in Ham' F12 media containing FBS were added to the CHO cells. […] The incubation mixtures were gently mixed and incubated at 37° C. for 1 hour in a CO2 incubator. The incubation mixtures were then removed and replaced with fresh media. The tissue culture plates were then incubated for 24 hours at 37° C., fixed with 100% methanol, and stained with Geimsa stain. Control experiments were done in the absence of peptide alone or in the absence of PT. All determinations were done in triplicate. […] The results reported in Table VIII show the maximum peptide concentration required to cause a 50% reduction in CHO cell clumping.

[9] = molecular target: T8, ACS2P1-biotin binding to fetuin (Bordetella pertussis, UniProt P04978); conditions: saccharide 8 mM in PBS; 0.1 μg ACS2P1-biotin; fetuin 3 μg/ml; + enhancement, − inhibition
T8 construct: 2; ACS2P1-b; 9-23; made in house; host or cells: chemical synthesis

| Compound | Percent Changes in Binding Activity PT/fetuin [1] | Percent Changes in Binding Activity MAL/fetuin [2] | Percent Changes in Binding Activity SNA/fetuin [3] | Percent Changes in Binding Activity WGA/fetuin [4] | Percent Changes in Binding Activity PT/asialo-fetuin [5] | Percent Change in Binding Activity Fetuin [6] | Percent Change in Binding Activity Asialofetuin [7] | Maximal Inhibitory Concentration for Greater than 50% Inhibition [8] | other results |
| --- | --- | --- | --- | --- | --- | --- | --- | --- | --- |
| VAPGIVIPPKALFTQQGGAYGRC [Peptide S3P2] | +77 ± 59% | +12 ± 16% | +3 ± 3% | +9 ± 4% | +82 ± 11% | +88 ± 72% | +12 ± 16% | NI (Not inhibitory at a peptide concentration of 300 ng/ml.) | inhibition of ACS2P1-biotin binding to fetuin, in words [6]: inability |
| YDGKYWSMYSRLRKMLY [Peptide S2P4] | +14 ± 22% | +2(1) Percent | +3(1) Percent | +15 ± 1% | −3(1) Percent | −8 ± 16% | +2 ± 4% |  |  |
| CITTIYKTGQPAADHYYSKVTA [Peptide S3P3] | +19 ± 67% | +13 ± 15% | +3 ± 0% | +6 ± 3% | −28 ± 7% | −13 ± 16% | −10 ± 11% |  | effect on PT-biotin binding to asialofetuin, in words [5]: reduce binding of PT to asialofetuin only; also recorded: inhibit PT-biotin's interaction with asialofetuin in a concentration-dependent manner; IC50 PT-b (asialofetuin) ([5]; wells coated with 3 μg/ml asialofetuin, 2-fold dilutions of peptide in PBS): above the solubility limits of the peptide in PBS |
| PKALFTQQGGAYGRC [Peptide S3P1] | +54 ± 25% | +4 ± 6% | −2 ± 1% | −9 ± 4% | +45 ± 16% | +245 ± 28% | +4 ± 0% | NI (Not inhibitory at a peptide concentration of 300 ng/ml.) | inhibition of ACS2P1-biotin binding to fetuin, in words [6]: inability |
| CC[C@H](C)[C@H](NC(=O)CNC(=O)[C@@H]1CCCN1C(=O)[C@@H](NC(=O)[C@@H](N)CO)[C@@H](C)O)C(=O)N[C@H](C(=O)N[C@H](C(=O)N1CCC[C@H]1C(=O)N1CCC[C@H]1C(=O)N[C@@H](CCC(N)=O)C(=O)N[C@@H](CCC(=O)O)C(=O)N[C@@H](CCC(N)=O)C(=O)N[C@H](C(=O)N[C@H](C(=O)N[C@@H](CCC(N)=O)C(=O)N[C@@H](Cc1c[nH]cn1)C(=O)NCC(=O)N[C@@H](CO)C(=O)N1CCC[C@H]1C(=O)N[C@@H](Cc1ccc(O)cc1)C(=O)NCC(=O)N[C@@H](CCCNC(=N)N)C(=O)N[C@@H](CS)C(=O)O)[C@@H](C)O)[C@@H](C)CC)[C@@H](C)CC)C(C)C [Peptide S2P2] | +58 ± 4% | +14 ± 2% | −1 ± 1% | −15 ± 2% | +33(1) Percent | −50% | +6 ± 1% | NI (Not inhibitory at a peptide concentration of 300 ng/ml.) | effect on PT-biotin binding to fetuin, in words [1]: enhancement of binding of PT to fetuin; enhancement of PT-biotin binding to fetuin relative to control experiments in the absence of peptide ([1]; initial peptide screening): ~2 fold; IC50 [6]: 42.5 µM; decrease in affinity relative to ACS2P1 ([6]; from IC50 values): 10 fold; competition for the binding of ACS2P1-biotin to asialofetuin, in words [7]: unable to compete for the binding of ACS2P1-biotin to asialofetuin |
| OC[C@H]1O[C@@](CO)(O[C@H]2O[C@H](CO)[C@@H](O)[C@H](O)[C@H]2O)[C@@H](O)[C@@H]1O [Sucrose] |  |  |  |  |  |  |  |  | Percent Changes in Binding Activity ACS2P1-biotin (n = 3) [9]: 0 ± 3% |
| CC[C@H](C)[C@H](NC(=O)[C@H](CS)NC(=O)[C@H](Cc1ccccc1)NC(=O)[C@@H](NC(=O)[C@@H](NC(=O)[C@H](CCCCN)NC(=O)[C@H](CC(C)C)NC(=O)[C@H](CC(=O)O)NC(=O)[C@H](Cc1ccccc1)NC(=O)[C@H](C)NC(=O)CN)[C@@H](C)O)[C@@H](C)O)C(=O)N[C@@H](CCSC)C(=O)N[C@H](C(=O)N[C@H](C(=O)N[C@@H](CCCNC(=N)N)C(=O)N[C@@H](CC(N)=O)C(=O)N[C@H](C(=O)NCC(=O)N[C@@H](CCC(N)=O)C(=O)N1CCC[C@H]1C(=O)N[C@@H](C)C(=O)O)[C@@H](C)O)[C@@H](C)O)[C@@H](C)O [Peptide S2P3] | −21 ± 0% | −18 ± 2% | −15 ± 4% | −56 ± 8% | −15(1) Percent | +70 ± 11% | +15 ± 11% |  | IC50 [1]: 190 ± 90 µM; effect on PT-biotin binding to fetuin, in words [1]: inhibit binding to fetuin of all the biotinylated lectins; IC50 [2]: 860 ± 20 µM; effect on MAL-biotin binding to fetuin, in words [2]: inhibit binding to fetuin of all the biotinylated lectins; also recorded: very active at inhibiting; IC50 [4]: 140 ± 30 µM |
